Measurements published in PubChem BioAssay AID1963843 (Molecular Pharmacology Branch, DTP, NCI, 2024).

Tested on: 616215-338-R-J1-PDC complex spheroid viability
Test: Anticancer human tumor 616215-338-R-J1-PDC patient-derived colon adenocarcinoma cell line growth inhibition [POLQ]
Conditions: for IC50: curve of first compound; for viability, T/C: stronger effect = lower value
Description: Multicellular complex tumor spheroid response to Polymerase (POL) inhibitors (novobiocin, ART-558, RP6685) in combination with a variety of drugs and investigational agents in selected tumor cell lines
The POL inhibitors (novobiocin, ART-558, and RP6685) were evaluated both individually and in combination with standard of care and investigational anticancer small molecules within a complex spheroid model of solid tumors. . Complex spheroids include a stromal component modeled by human endothelial cells (HUVEC) and fibroblasts modeled by human mesenchymal stem cells (MSCs). The concentration ranges selected for each drug and investigational agent were based upon clinically achievable concentrations if the clinical Cmax of the agent was known.
Compounds. The drugs and investigational agents: novobiocin (NSC847541), ART-558 (NSC835418), RP-6685 (NSC848927), peposertib (NSC802822), ceralasertib (NSC780249), elimusertib (NSC800525), camonsertib (NSC841442), AZD-1390 (NSC803789), olaparib (NSC753686), talazoparib (NSC767125), rucaparib (NSC756644), sotorasib (NSC818433), MRTX-1133 (NSC836407), SN-38 (NSC673596), topotecan (NSC609699), epotoside (NSC141540), doxorubicin (NSC123127), gemcitabine (NSC613327), 5-fluorouracil (NSC19893), paclitaxel (NSC125973), vemurafenib (NSC761431), MSA-2 (NSC828583), SN-011 (NSC837082), adavosertib (NSC754352), prexasertib (NSC758257), carboplatin (NSC241240) and oxaliplatin (NSC266046), were obtained from the National Cancer Institute (NCI) Developmental Therapeutics Program Chemical Repository (21). The FDA-approved anticancer drug set is available from the Developmental Therapeutics Program at https://dtp.cancer.gov/organization/dscb/obtaining/. […] The stock solutions were prepared in dimethyl sulfoxide (DMSO, Sigma-Aldrich, St. Louis, MO, cat. D2650), except for the platinum compounds which were prepared in saline (Quality Biological, Gaithersburg, MD, cat. 114-055-101), at 800-fold the tested concentration and stored at -70 degrees C prior to their use. All drugs and investigational agents were tested over a range starting from a high concentration at or near the clinical Cmax and decreasing in half-log increments. If the clinical Cmax for an agent had not been determined, the highest concentration tested was 10 microM, except for SN-38, which was tested at a high concentration of 1 microM.
Cell Culture. All cells were maintained in an incubator at 37 degrees C and 5% CO2 with 95% humidity. The PDC lines were cultured according to standard operating procedures established by the NCI PDMR (https://pdmr.cancer.gov). Table 3 of the manuscript, lists the cell lines along with the number of the three cell types plated to form the mct-spheroids and media for tumor cell growth. After thawing, all PDC lines, except 997537-175-T-J1-PDC and 415267-285-R-J2-PDC, were cultured in Matrigel-coated flasks prepared with a working solution of 1X Ham's F-12 nutrient mix, without supplementation (Thermo Fisher Scientific, cat. 11765054), 100 U/mL penicillin-streptomycin (Thermo Fisher Scientific, cat. 15140122), and 2.5% Matrigel (Corning Inc., Corning, NY, cat. 354248) for the first three passages. The two PDC lines 997537-175-T-J1-PDC and 415267-285-R-J2-PDC were cultured on uncoated flasks. The 857933-349-R-J2-PDC line was cultured in 6C/Colon 1B media containing advanced DMEM/F-12 (Thermo Fisher Scientific, cat. 12634028), 10 mM HEPES (Thermo Fisher Scientific, cat. 15630080), 1X GlutaMAX supplement (Thermo Fisher Scientific, cat. 35050061), 0.1 mg/mL primocin (InvivoGen, San Diego, CA, cat. ant-pm-2), 10% defined fetal bovine serum, heat inactivated (HyClone Laboratories Inc., Logan, UT, cat. SH30070.03HI), 50% L-WRN conditioned media (ATCC, cat. CRL-3276), 1.25 mM N-Acetyl-L-cysteine (Sigma-Aldrich, cat. A9165), 10 mM nicotinamide (Sigma-Aldrich, cat. N0636), 1X B-27 supplement (Thermo Fisher Scientific, cat. 17504044), 1X N-2 supplement (Thermo Fisher Scientific, cat. […]
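Also: spheroids exposed to compounds for one week before readout.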
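For viability, T/C in this document: percent viability relative to DMSO vehicle wells taken as 100%.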

For `CNCc1ccc(-c2[nH]c3cc(F)cc4c3c2CCNC4=O)cc1` + COC1C(OC(N)=O)C(O)C(Oc2ccc3c(O)c(NC(=O)c4ccc(O)c(CC=C(C)C)c4)c(=O)oc3c2C)OC1(C)C, the IC50 (second compound 0.0316 µM) was > 10 µM, the IC50 (second compound 0.1 µM) was > 10 µM and the IC50 (second compound 0.316 µM) was > 10 µM. For the same molecule, the IC50 (second compound 1 µM) was > 10 µM, the IC50 (second compound 3.16 µM) was > 10 µM and the IC50 (second compound 10 µM) was > 10 µM. For the same molecule, the viability, T/C (second compound 0.0316 µM, first compound 0.0316 µM) was 98.7%, the viability, T/C (second compound 0.0316 µM, first compound 0.1 µM) was 99.8% and the viability, T/C (second compound 0.0316 µM, first compound 0.316 µM) was 106%. The viability, T/C (second compound 0.0316 µM, first compound 1 µM) was 111%, the viability, T/C (second compound 0.0316 µM, first compound 3.16 µM) was 107% and the viability, T/C (second compound 0.0316 µM, first compound 10 µM) was 93.3%. For the same molecule, the viability, T/C (second compound 0.1 µM, first compound 0.0316 µM) was 102%, the viability, T/C (second compound 0.1 µM, first compound 0.1 µM) was 102% and the viability, T/C (second compound 0.1 µM, first compound 0.316 µM) was 98.7%. For the same molecule, the viability, T/C (second compound 0.1 µM, first compound 1 µM) was 99.5%, the viability, T/C (second compound 0.1 µM, first compound 3.16 µM) was 101% and the viability, T/C (second compound 0.1 µM, first compound 10 µM) was 83.9%. It also gave a viability, T/C (second compound 0.316 µM, first compound 0.0316 µM) of 107%, a viability, T/C (second compound 0.316 µM, first compound 0.1 µM) of 113% and a viability, T/C (second compound 0.316 µM, first compound 0.316 µM) of 115%. The viability, T/C (second compound 0.316 µM, first compound 1 µM) was 105%, the viability, T/C (second compound 0.316 µM, first compound 3.16 µM) was 105% and the viability, T/C (second compound 0.316 µM, first compound 10 µM) was 83.2%. It also gave a viability, T/C (second compound 1 µM, first compound 0.0316 µM) of 105%, a viability, T/C (second compound 1 µM, first compound 0.1 µM) of 106% and a viability, T/C (second compound 1 µM, first compound 0.316 µM) of 101%. For the same molecule, the viability, T/C (second compound 1 µM, first compound 1 µM) was 102%, the viability, T/C (second compound 1 µM, first compound 3.16 µM) was 109% and the viability, T/C (second compound 1 µM, first compound 10 µM) was 76.2%. It also gave a viability, T/C (second compound 3.16 µM, first compound 0.0316 µM) of 106%, a viability, T/C (second compound 3.16 µM, first compound 0.1 µM) of 101% and a viability, T/C (second compound 3.16 µM, first compound 0.316 µM) of 106%. The viability, T/C (second compound 3.16 µM, first compound 1 µM) was 109%, the viability, T/C (second compound 3.16 µM, first compound 3.16 µM) was 117% and the viability, T/C (second compound 3.16 µM, first compound 10 µM) was 58.9%. For the same molecule, the viability, T/C (second compound 10 µM, first compound 0.0316 µM) was 109%, the viability, T/C (second compound 10 µM, first compound 0.1 µM) was 101% and the viability, T/C (second compound 10 µM, first compound 0.316 µM) was 97.6%. The viability, T/C (second compound 10 µM, first compound 1 µM) was 104%, the viability, T/C (second compound 10 µM, first compound 3.16 µM) was 105% and the viability, T/C (second compound 10 µM, first compound 10 µM) was 55%.
